According to ChEMBL document CHEMBL1124679, “A novel lead for specific anti-HIV-1 agents: 1-[(2-hydroxyethoxy)methyl]-6-(phenylthio)thymine” (J Med Chem, 1989):
Values belong to the compound of their own block, whether it stands above or below them.

What was measured:
MT4 [1] = test: Concentration required to achieve 50% protection of MT-4 cells against cytopathic effect of HIV-1; format: functional, cell-based; details: Homo sapiens
[2] = Selectivity index is the ratio of CC50/EC50; format: functional
MT4 [3] = test: Cytotoxic concentration of compound required to reduce the viability of mock-infected MT-4 cells by 50%; format: functional; details: Homo sapiens
[4] = target: T1, Human immunodeficiency virus type 1 reverse transcriptase (Human immunodeficiency virus 1, UniProt Q72547); test: Inhibitory effect on HIV-1 reverse transcriptase activity using poly(rA)-oligo(dT) template primer
[5] = target: T1, Human immunodeficiency virus type 1 reverse transcriptase; test: Inhibitory effect on HIV-1 reverse transcriptase activity using poly(rC)-oligo(dG) template primer

Compound: O=c1[nH]c(=O)n(COCCO)c(I)c1F
EC50 (MT4 [1]): > 15 µM
SI [2]: < 2.1
CC50 (MT4 [3]): 32 µM

Compound: Cc1cn([C@H]2C[C@H](N=[N+]=[N-])[C@@H](CO)O2)c(=O)[nH]c1=O [ZIDOVUDINE]
EC50 (MT4 [1]): 0.016 µM
SI [2]: 1250
CC50 (MT4 [3]): 20 µM

Compound: Nc1ncnc2c1ncn2[C@H]1CC[C@@H](CO)O1
EC50 (MT4 [1]): 6.3 µM
SI [2]: 141
CC50 (MT4 [3]): 890 µM

Compound: O=c1[nH]c(=O)n(COCCO)c(Sc2ccccc2)c1Br
EC50 (MT4 [1]): > 20 µM
SI [2]: < 2.2
CC50 (MT4 [3]): 44 µM

Compound: O=c1[nH]c(=O)n(COCCO)c(I)c1Br
EC50 (MT4 [1]): > 5 µM
SI [2]: < 2.3
CC50 (MT4 [3]): 11.5 µM

Compound: O=c1[nH]c(=O)n(COCCO)c(Sc2ccccc2)c1Cl
EC50 (MT4 [1]): > 30 µM
SI [2]: < 3.4
CC50 (MT4 [3]): 100 µM

IC50 [4]: 280 µM
IC50 [5]: 500 µM
Compound: Cc1c(Sc2ccccc2)n(COCCOP(=O)(O)P(=O)(O)P(=O)(O)O)c(=O)[nH]c1=O

Compound: Cc1c(I)n(COCCO)c(=O)[nH]c1=O
EC50 (MT4 [1]): > 80 µM
SI [2]: < 5
CC50 (MT4 [3]): 400 µM

Compound: O=c1[nH]c(=O)n(COCCO)c(I)c1Cl
EC50 (MT4 [1]): > 6 µM
SI [2]: < 2.2
CC50 (MT4 [3]): 13 µM

IC50 [4]: 0.034 µM
Compound: Cc1cn(C2CC(N=[N+]=[N-])C(COP(=O)(O)P(=O)(O)P(=O)(O)O)O2)c(=O)[nH]c1=O (stereo not drawn)

Compound: O=c1cc(Sc2ccccc2)n(COCCO)c(=O)[nH]1
EC50 (MT4 [1]): > 500 µM
SI [2]: < 3.7
CC50 (MT4 [3]): 1850 µM

Compound: Nc1ccn([C@H]2CC[C@@H](CO)O2)c(=O)n1 [ZALCITABINE]
EC50 (MT4 [1]): 0.3 µM
SI [2]: 133
CC50 (MT4 [3]): 40 µM

Compound: O=c1cc(I)n(COCCO)c(=O)[nH]1
EC50 (MT4 [1]): > 30 µM
SI [2]: < 2.5
CC50 (MT4 [3]): 75 µM

Compound: Cc1c(Sc2ccccc2)n(COCCO)c(=O)[nH]c1=O [HEPT]
EC50 (MT4 [1]): 7 µM
CC50 (MT4 [3]): 740 µM
IC50 [4]: > 500 µM
IC50 [5]: 150 µM

Compound: O=c1[nH]c(=O)n(COCCO)c(Sc2ccccc2)c1F
EC50 (MT4 [1]): > 100 µM
SI [2]: < 2.9
CC50 (MT4 [3]): 288 µM
